Measured values taken from US20250235447A1, “METHODS FOR TREATING CARDIOVASCULAR CONDITIONS AND METHODS OF INCREASING THE EFFICIENCY OF CARDIAC METABOLISM” (IMBRIA PHARMACEUTICALS, INC., priority 2021, published 2025).

Legend:
[1] = 28-day dog toxicity study (NOAEL and exposure); type: in vivo; conditions: from HED
Procedure: Based on the nonclinical toxicology data, it was considered that subjects in this clinical study were not at unreasonable risk of adverse effects. […] For a 60-kg individual, the NOAEL dose would be 6480 mg. With a 10-fold safety factor applied, this would allow for a maximum recommended starting dose (MRSD) of 648 mg/day.7,8 The planned starting dose in the current Phase 1 study was 50 mg, equivalent to 0.83 mg/kg/day for a 60-kg subject. This starting dose is less than 10% of the MRSD determined from the dog NOAEL and less than 1% of the dog NOAEL.
The relevant animal study was the 28-day dog study where the NOAEL for IMB-1018972 was 200 mg/kg/day.

[2] = test system: myocardial energetics and metabolism; assay: Pharmacodynamic study in obese patients with Type 2 diabetes (PCr/ATP, myocardial triglyceride, body weight); type: in vivo, human
Procedure: Results of a pharmacodynamic study to evaluate the impact of 200 mg BID of a composition of a compound with formula (X) on rest myocardial energetics (PCr/ATP) in obese individuals with type 2 diabetes are detailed in FIGS. 52-65. The key endpoints of the study were to evaluate the metabolic response, specifically the impact on PDH flux using hyperpolarized ^13C-pyruvate MRS, as a measure of the compound's ability to promote glucose oxidation and recouple glucose oxidation with glycolysis. Also assessed was the effect on cardiac systolic and diastolic function, measured by cardiac magnetic resonance (CMR) and transthoracic echocardiography (TTE), and the effect on cardiac steatosis using ^1H-MRS.
The primary objective is to evaluate the impact of 200 mg of formula (X) on rest and stress myocardial energetics (PCr/ATP). Other objectives include: to evaluate the metabolic response, specifically the impact on PDH flux using hyperpolarized ^13C-pyruvate MRS, as a measure of the compound's ability to promote glucose oxidation; to assess the effect on cardiac systolic and diastolic function, as measured by cardiac magnetic resonance (CMR) and transthoracic echocardiography (TTE); to measure the impact on myocardial steatosis.
(§1) This was a randomized study consisting of a population of 20 patients with Type 2 diabetes and a BMI≥30 kg/m^2. The first five patients were treated for four weeks; the subsequent 15 patients (patients 6-20) were treated for eight weeks (with five additional patients prn). Ten patients had hyperpolarized ^13C-pyruvate MRS.

[3] = Pharmacodynamic study in obese patients with Type 2 diabetes: preliminary safety data; type: in vivo, human
Procedure: as §1
The preliminary baseline characteristics of randomized participants is detailed in FIG. 52. The preliminary baseline characteristics of completers is detailed in FIG. 53. FIG. 54 details adverse events as of the data cut-off date of September 20. Nineteen patients were on the drug from approximately one to eight weeks. There were no SAEs. Seven subjects reported nine adverse events. Two subjects had three drug-related AEs. All AEs were mild or moderate in severity. […] Overall, the compound was well-tolerated.

[4] = FIH study, SAD part: plasma pharmacokinetics after single oral dose; conditions: all blood samples of subjects that received IMB-1018972
Procedure: (§2) Each subject participated in only 1 group during the study.
(§3) The blood samples were taken via an indwelling intravenous catheter or by direct venipuncture. The exact times of blood sampling were recorded in the eCRF.

[5] = FIH study: safety and tolerability (adverse events, laboratory, vital signs, ECG)
Procedure: AEs were recorded from (first) admission until completion of the follow-up visit. Any clinically significant observations in results of clinical laboratory, 12-lead ECGs, vital signs, or physical examinations were recorded as AEs.
A treatment-emergent AE (TEAE) was defined as any event not present prior to (the first) administration of the study drug or any event already present that worsened in either severity or frequency following exposure to the study drug.
The severity of the AEs was rated as mild, moderate, or severe; the relationship between the AEs and the study drug was indicated as none, unlikely, possibly, likely, or definitely. Adverse events assessed as possibly, likely, or definitely were considered related to the study drug; AEs assessed as none or unlikely were considered not related to the study drug.
The ECG was recorded using an ECG machine equipped with computer-based interval measurements (with no/minimal disturbance by procedures). The following ECG parameters were recorded: heart rate, PR-interval, QRS-duration, QT-interval, QTcF-interval, and the interpretation of the ECG profile by the Investigator.

[6] = human, in vivo
Procedure: as §2, §3

[7] = human, in vivo; remark: listed apart in the source
Procedure: Subjects received multiple oral doses of an IR formulation of IMB-1018972 or placebo once every 12 hours (q12 h) for 14 consecutive days. Each subject participated in only 1 group during the study.
The doses were selected based upon the safety, tolerability, and PK data from the SAD part: • Group B1 multiple oral doses of an IR formulation of 150 mg IMB-1018972 (n=9) or matching placebo (n=3) twice daily (q12 h) for 14 days; on Day 14 only a single morning dose was administered • Group B2: multiple oral doses of an IR formulation of 50 mg IMB-1018972 (n=9) or matching placebo (n=3) q12 h for 14 days; on Day 14 only a single morning dose was administered
Before each morning dose, subjects fasted overnight for at least 10 hours following a snack on the evening before. On Days 1 and 14, subjects received a standardized breakfast that had to be consumed within 20 minutes. Dosing occurred at 30 minutes after the start of breakfast. Following dosing, subjects fasted for 4 hours until lunch. During fasting, fluids other than water were not allowed. On Days 2 to 13, breakfast was not standardized and was given within maximally 1 hour before dosing and consumed before dosing. No fasting after dosing was applicable on these days.

[8] = clinical; conditions: human, in vivo, 50 mg
Procedure: as §2, §3

[9] = 200 mg, combined 4- and 8-week cohorts, interim data

## COc1ccc(CN2CCN(CCOC(=O)c3cccnc3)CC2)c(OC)c1OC [IMB-1018972]
[1]
  NOAEL dose for a 60-kg individual: 6480 mg
[2]; [9]
  Cardiac energetics (PCr/ATP): significant and meaningful increase
  Myocardial steatosis (myocardial triglycerides): highly significant reduction
[2]; short-term administration, cohorts of the study
  Mean fasting glucose: significant reduction
[2]; short-term administration, combined 4- and 8-week cohorts
  Body weight: significant weight loss
[3]; nineteen patients on drug
  Flushing: no flushing reported
  Number of adverse events: nine
  Number of drug-related AEs: three
  Subjects reporting adverse events: Seven
  Subjects with drug-related AEs: Two
[3]; nineteen patients on drug about one to eight weeks
  SAEs: no SAEs
[3]; overall
  Tolerability: well-tolerated
[4]
  IMB-1018972 (parent) in plasma samples: could be measured in only few plasma samples
[5]; FE arm of SAD part
  Effect of fed dosing on number and incidence of TEAEs: appeared to attenuate the number and incidence of TEAEs
[5]; MAD part
  Subjects with TEAEs of flushing, SOC vascular disorders: 33.3%
  Subjects with TEAEs, SOC general disorders and administration site conditions: 27.8%
  Subjects with TEAEs, SOC musculoskeletal and connective tissue disorders: 27.8%
[5]; MAD part, 150 mg q12 h
  Number of TEAEs of flushing (mild): 7
[5]; MAD part, 6 of 18
  Subjects with TEAEs considered related to the study drug: 33.3%
[5]; MAD part, 11 of 18
  Subjects with TEAEs considered not related to the study drug: 61.1%
[5]; SAD part
  Subjects with TEAEs, SOC gastrointestinal disorders: 16.7%
  Subjects with TEAEs, SOC general disorders and administration site conditions: 20.8%
  Subjects with TEAEs, SOC nervous system disorders: 29.2%
  Subjects with TEAEs, SOC skin and subcutaneous tissue disorders: 16.7%
  Subjects with TEAEs, SOC vascular disorders: 29.2%
  Subjects with drug-related TEAEs of flushing (vascular disorders): 25%
  Subjects with drug-related TEAEs, nervous system disorders: 16.7%
[5]; SAD part, 7 of 24
  Subjects with TEAEs considered related to the study drug: 29.2%
[5]; single 150 mg IMB-1018972, fasted, FE arm
  Subjects reporting flushing: 2
[5]; single 400 mg IMB-1018972, fasted
  Subjects reporting flushing: Four

## COc1ccc(CN2CCNCC2)c(OC)c1OC [trimetazidine]
[6]
  Time at which detectable concentrations generally appeared: 15 to 30 min
[7]
  Geometric mean Cmax lower, MAD Day 1 150 mg fed vs SAD single 150 mg fed: 32%
[8]
  Tmax: 8 h
